# According to patent US20180051317A1, “NON-RADIOACTIVE METHOD FOR DETERMINING THE CYTOLITIC ACTIVITY OF AN AGENT WITH RESPECT TO TARGET CELLS, USE THEREOF AND ASSOCIATED KIT” (CLEAN CELLS, priority 2015, published 2018):
# What was measured:
# Format in all cases: cell-based
# [1] = system: Raji cells; assay: cell death induced by a pro-apoptotic chemical agent (nanoluciferase release and TO-PRO-3 flow cytometry); settings: 48 hours, increasing concentrations; regardless of the method for measuring the mortality
# Description: Raji cells transformed to stably express nanoluciferase (50 000 cells per well) are cultured for 48 hours at 37° C. (under a humidified atmosphere containing 5% CO2) in the presence of increasing concentrations of staurosporine, which is a pro-apoptotic drug, in RPMI-1640 medium containing 10% of FCS, and in the presence or absence of 0.2% of triton X-100 (to determine the maximum release). At the end of the incubation, 25 μl of supernatant are recovered from each well, transferred into a white “half-well” plate, mixed with 25 μl of NanoGlo® substrate diluted to 1/50 in D-PBS, incubated for 3 minutes and read on a Mithras LB940 luminometer. The results of the reading are expressed in RLU (relative luminescence units). The percentage of dead cells for each concentration of staurosporine is determined according to the formula (RLU[triton-free medium])/(RLU[0.2% triton])×100.
# After removing the supernatant, the remainder of the cells are resuspended, extemporaneously mixed with a final concentration of 0.25 μM of the vital marker TO-PRO-3 (Life Technologies) and acquired on a C6 flow cytometer (BD/Accuri). The percentage of dead cells is determined during the analysis of the cytometry data as the percentage of cells having integrated the TO-PRO-3.
# Two identical independent experiments were carried out, the results of which are presented on graphs A and B of FIG. 28. […]
# [2] = system: CHO cells stably expressing human TNF-alpha in its membraned form; assay: anti-TNF-alpha CDC assay, 51Cr release method; settings: for mean potency: mean±SD
# Description: (§1) The method for measuring nanoluciferase release was compared to the chromium method in a third model, that of the anti-TNF-alpha antibody adalimumab (Humira®). The present example illustrates the implementation thereof in an assay for measuring the CDC activity. For this, CHO cells pretransformed and selected to stably express human TNF-alpha in its membraned form were transformed to stably express nanoluciferase. […] Briefly, these cells, labeled or not labeled with ^51Cr, were incubated in the presence of increasing concentrations of adalimumab (Humira®) and of a source of complement (from guinea pig (Sigma)). The specific lysis was then measured by the appropriate method (chromium release or nanoluciferase release).
# (§2) The percentage of specific lysis obtained for each concentration X is calculated in the same way for the two types of methods, on the basis of the measurements of radioactivity (in CCPM) or of luminescence (in RLU) according to the formula
# (§3) The percentages of specific lysis are represented along the y-axis, each point (black circle for nanoluciferase and white squares for ^51Cr) representing the mean of the nine determinations (3 replicates in 3 independent experiments) and the vertical bars representing the standard deviations. The data were modeled by means of a 4-parameter sigmoidal regression using the GraphPad Prism software.
# [3] = system: CHO cells stably expressing human TNF-alpha in its membraned form; assay: anti-TNF-alpha CDC assay, nanoluciferase release method; settings: for mean potency: mean±SD
# Description: as §1, §2, §3
# [4] = system: CHO cells stably expressing TNF-alpha and nanoluciferase; assay: anti-TNF-alpha ADCC assay, 51Cr release method; settings: mean±SD of 3 experiments
# Description: (§4) The nanoluciferase method was compared to the ^51Cr method in an anti-TNF-alpha ADCC assay. For this, the CHO cells described in example 7, stably expressing TNF-alpha and nanoluciferase, were used, as was a standard range of adalimumab and of variations at 80% and 125% of this range. Three independent experiments were carried out, according to the same methodology as in the previous examples.
# [5] = system: CHO cells stably expressing TNF-alpha and nanoluciferase; assay: anti-TNF-alpha ADCC assay, nanoluciferase release method; settings: mean±SD of 3 experiments
# Description: as §4
# [6] = system: Raji target cells; assay: anti-CD20 ADCC assay, 51Cr release method
# Description: (§5) The same Raji cells expressing nanoluciferase were or were not labeled with ^51Cr and were used in parallel in the assay.
# (§6) Raji target cells transformed to stably express nanoluciferase were incubated or not incubated for 1 hour in a saline solution of Na2CrO4 equivalent to 100 μCi of ^51Cr per million cells, then washed 4 times with RPMI-1640, 10% FCS, and counted. The cells (3000 per well), labeled or not labeled with ^51Cr, were then incubated at 37° C. in a humidified atmosphere at 5% CO2 in flat-bottomed 96-well plates treated for cell culture, in the presence of increasing concentrations of the rituximab antibody (MabThera®) and of cytotoxic effector cells (T lymphocytes expressing CD16, 30 000 cells per well) in RPMI-1640 supplemented with 5% of FCS.
# (§7) After 4 hours of incubation, the percentage of specific lysis is measured according to the corresponding method (release of ^51Cr or of nanoluciferase depending on whether the cells have or have not been labeled with chromium): 25 μl of supernatant of the ^51Cr-labeled cells are recovered and deposited on a Lumaplate® (Perkin Elmer). At the same time, for the cells not labeled with ^51Cr, 25 μl of supernatant are recovered from each well, transferred into white “half-well” 96-well plates, mixed with 25 μl of NanoGlo® substrate diluted to 1/50 in D-PBS, incubated for 3 minutes and read on a Mithras LB940 luminometer (Berthold Technologies). After drying overnight, the radioactivity of the supernatants deposited in the Lumaplate® is measured in a Microbeta-Jet counter (Perkin Elmer) and expressed in CCPM (corrected count per minute) after standardization of the detectors.
# (§8) The percentage of specific lysis obtained for each concentration X is calculated in the same way for the two types of methods, from the measurements of radioactivity (in CCPM) or of luminescence (in RLU) according to the formula
# as §3, with “represented in FIG. 9” for “represented”, “point” for “point (black circle for nanoluciferase and white squares for ^51Cr)”
# (§9) This approach also makes it possible to evaluate the accuracy of the method according to the ICH-Q2(R1) criteria.
# [7] = system: Raji target cells; assay: anti-CD20 ADCC assay, nanoluciferase release method
# Description: as §5, §6, §7, §8
# as §3, with “represented in FIG. 9” for “represented”, “point” for “point (black circle for nanoluciferase and white squares for ^51Cr)”
# as §9
# [8] = system: Raji target cells; assay: anti-CD20 CDC assay, 51Cr release method
# Description: as §6, §7, §8
# as §3, with “represented in FIG. 9” for “represented”, “point” for “point (black circle for nanoluciferase and white squares for ^51Cr)”
# as §9
# (§10) Using the same type of target cells as that of example 4, the nanoluciferase method was compared to the ^51Cr method in an anti-CD20 CDC assay. The methodology applied was the same as that described in example 4, the cytolytic system being formed by a source of complement. In the same way, a standard range of antibody (rituximab) was used, and also 80% and 125% modified concentration ranges. Three independent experiments were carried out, one of which was carried out by a second operator.
# [9] = system: Raji target cells; assay: anti-CD20 CDC assay, nanoluciferase release method
# Description: as §6, §7, §8
# as §3, with “represented in FIG. 9” for “represented”, “point” for “point (black circle for nanoluciferase and white squares for ^51Cr)”
# as §9, §10
# [10] = 51Cr, guinea pig complement, mean±SD over the whole of the ranges in the 3 experiments
# [11] = guinea pig complement, mean±SD over the whole of the ranges in the 3 experiments
# [12] = 80% range, mean±SD of 3 experiments
# [13] = 125% range, mean±SD of 3 experiments
# [14] = mean±SD of 3 experiments, 100% range
# [15] = mean±SD, 80%, 100% and 125% ranges, 3 experiments, 4 h, CD16 T lymphocyte effectors
# [16] = 100% range, mean±SD of 3 experiments
# [17] = complement source, mean±SD, all of the 80%, 100% and 125% ranges
compound,measurement,setting,value
CN[C@@H]1C[C@H]2O[C@@](C)([C@@H]1OC)n1c3ccccc3c3c4c(c5c6ccccc6n2c5c31)C(=O)NC4 [staurosporine],mortality of the target cells,[1],proportional relationship between the concentration of staurosporine and the mortality of the target cells
adalimumab,mean potency,"[2]; 51Cr, 80% range",91.2±23.6%
same,mean potency,"[2]; 51Cr, 125% range",153.9±29.2%
same,Emax,[2]; [10],50.4±5.6%
same,Emin,[2]; [10],3.2±2.8%
same,EC50,"[2]; chromium, standard ranges, mean±SD of 3 experiments",0.1508 ± 0.015 µg/mL
same,mean potency,[3]; 80% range,83.4±10.1%
same,mean potency,[3]; 125% range,131.7±47.2%
same,Emax,[3]; [11],45.7±5.1%
same,Emin,[3]; [11],0.9±1.5%
same,EC50,"[3]; standard ranges, mean±SD of 3 experiments",0.1569 ± 0.0234 µg/mL
same,mean potency,[4]; 80% range,91.4±43.3%
same,mean potency,[4]; 125% range,138.5±43.9%
same,mean potency,[5]; 80% range,75.5±15.5%
same,mean potency,[5]; 125% range,114.2±22.8%
rituximab,potency (EC50[100%]/EC50[X%]×100),[6]; [12],76.7±10%
same,potency (EC50[100%]/EC50[X%]×100),[6]; [13],131.9±11.9%
same,EC50,[6]; [14],0.0552 ± 0.0156 µg/mL
same,Emax (maximum lysis percentage),[6]; [15],75.7±6.0%
same,Emin (minimum lysis percentage),[6]; [15],1.0±1.5%
same,potency (EC50[100%]/EC50[X%]×100),[7]; [12],83.6±22%
same,potency (EC50[100%]/EC50[X%]×100),[7]; [13],119.5±22.7%
same,EC50,[7]; [14],0.0318 ± 0.0073 µg/mL
same,Emax (maximum lysis percentage),[7]; [15],73.6±8.4%
same,Emin (minimum lysis percentage),[7]; [15],1.2±1.2%
same,potency,"[8]; 80% range, mean±SD",69.6±12.3%
same,EC50,[8]; [16],0.1567 ± 0.0301 µg/mL
same,potency,"[8]; 125% range, mean±SD",131.5±16.4%
same,Emax,[8]; [17],88.6±7.8%
same,Emin,[8]; [17],3.0±3.4%
same,potency,"[9]; 80% range, mean±SD",65.0±12.9%
same,EC50,[9]; [16],0.0731 ± 0.0099 µg/mL
same,potency,"[9]; 125% range, mean±SD",105.8±8.2%
same,Emax,[9]; [17],95.6±7.0%
same,Emin,[9]; [17],−0.3±3.2%
